Results reported in PubChem BioAssay AID248 (DTP/NCI, 2004).
Where “and” joins values, the source holds several entries; their conditions need not be identical. Equal values may be shown once. Toxic doses and inconclusive results are not listed. Cut-off read from the data, not from the text of the source: active = T/C of 150% or more; inactive = T/C below 125%.

System: L1210 leukemia ip in BDF1 mice, survival T/C
Test: NCI In Vivo Anticancer Drug Screen. Data for tumor model L1210 Leukemia (intraperitoneal) in B6D2F1 (BDF1) mice
Conditions: endpoint: mean survival time, higher = longer survival
How it was run: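 Antitumor effect is assessed in tumor-bearing animals. Survival in the compound arm is compared with a vehicle-dosed control arm and expressed as their quotient.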

[1] = dose: 100.0 mg/kg/injection, schedule: Q04DX003 (ip), vehicle: saline with Tween-80
[2] = dose: 200.0 mg/kg/injection, schedule: Q04DX003 (ip), vehicle: saline with Tween-80
[3] = dose: 400.0 mg/kg/injection, schedule: Q04DX003 (ip), vehicle: saline with Tween-80
[4] = dose: 100.0 mg/kg/injection, schedule: Q04DX003 (ip), vehicle: saline
[5] = dose: 200.0 mg/kg/injection, schedule: Q04DX003 (ip), vehicle: saline
[6] = dose: 100.0 mg/kg/injection, schedule: Q01DX001 (ip), vehicle: carboxymethylcellulose (CMC)
[7] = dose: 200.0 mg/kg/injection, schedule: Q01DX001 (ip), vehicle: carboxymethylcellulose (CMC)
[8] = dose: 400.0 mg/kg/injection, schedule: Q01DX001 (ip), vehicle: carboxymethylcellulose (CMC)
[9] = dose: 100.0 mg/kg/injection, schedule: Q01DX009 (ip), vehicle: Klucel (hydroxypropylcellulose) (HPC)
[10] = dose: 100.0 mg/kg/injection, schedule: Q04DX003 (ip), vehicle: Klucel (hydroxypropylcellulose) (HPC)
[11] = dose: 200.0 mg/kg/injection, schedule: Q01DX009 (ip), vehicle: Klucel (hydroxypropylcellulose) (HPC)
[12] = dose: 200.0 mg/kg/injection, schedule: Q04DX003 (ip), vehicle: Klucel (hydroxypropylcellulose) (HPC)
[13] = dose: 400.0 mg/kg/injection, schedule: Q01DX009 (ip), vehicle: Klucel (hydroxypropylcellulose) (HPC)
[14] = dose: 400.0 mg/kg/injection, schedule: Q04DX003 (ip), vehicle: Klucel (hydroxypropylcellulose) (HPC)
[15] = dose: 50.0 mg/kg/injection, schedule: Q01DX009 (ip), vehicle: Klucel (hydroxypropylcellulose) (HPC)
[16] = dose: 100.0 mg/kg/injection, schedule: Q04DX002 (ip), vehicle: saline
[17] = dose: 200.0 mg/kg/injection, schedule: Q04DX002 (ip), vehicle: saline
[18] = dose: 25.0 mg/kg/injection, schedule: Q01DX009 (ip), vehicle: saline with Tween-80
[19] = dose: 50.0 mg/kg/injection, schedule: Q01DX009 (ip), vehicle: saline with Tween-80
[20] = dose: 100.0 mg/kg/injection, schedule: Q01DX009 (ip), vehicle: saline with Tween-80
[21] = dose: 400.0 mg/kg/injection, schedule: Q04DX002 (ip), vehicle: saline

Measured: T/C

CC(CC(C)(C)C)OS(=O)(=O)c1ccc(Br)cc1 (stereo not given)
inactive: [1] 98 % of control | [2] 101 % of control | [3] 92 % of control

Cc1cc(=O)n(-c2ccccc2)n1C.[Cl-].[Cl-].[Cl-].[Cl-].[Pt+2]
inactive: [1] 97 % of control | [2] 103 % of control | [3] 105 % of control

O=C(Nc1ccc(C2=NCCN2)c(Cl)c1)c1ccc(C(=O)Nc2ccc(C3=NCCN3)c(Cl)c2)cc1
inactive: dose: 1.87 mg/kg/injection, schedule: Q01DX Z (ip), vehicle: carboxymethylcellulose (CMC) 124 % of control | dose: 3.75 mg/kg/injection, schedule: Q01DX Z (ip), vehicle: carboxymethylcellulose (CMC) 124 % of control | dose: 7.5 mg/kg/injection, schedule: Q01DX Z (ip), vehicle: carboxymethylcellulose (CMC) 117 % of control | dose: 30.0 mg/kg/injection, schedule: Q01DX Z (ip), vehicle: carboxymethylcellulose (CMC) 120 % of control | dose: 120.0 mg/kg/injection, schedule: Q01DX Z (ip), vehicle: carboxymethylcellulose (CMC) 86 % of control

CCOC(=O)CCc1ccc2c(c1)OCO2
inactive: [4] 103 % of control | [5] 101 % of control | dose: 400.0 mg/kg/injection, schedule: Q04DX003 (ip), vehicle: saline 95 % of control

CCc1c(CO)cnc(C)c1OP(=O)(O)O
inactive: [6] 100 % of control | [7] 96 % of control | [8] 102 % of control

CCCOC(CCC(=O)NC(C)(C)C)CC(=O)NC(C)(C)C (stereo not given)
inactive: [9] 95 % of control | [10] 103 % of control | [11] 90 % of control | [12] 97 % of control | [13] 90 % of control | [14] 93 % of control

O=C1NC(c2cccc(OCc3ccccc3)c2)Nc2ccccc21 (stereo not given)
inactive: [15] 105 % of control | [9] 107 % of control | dose: 150.0 mg/kg/injection, schedule: Q01DX009 (ip), vehicle: Klucel (hydroxypropylcellulose) (HPC) 109 % of control

CN=Cc1ccccc1
inactive: dose: 50.0 mg/kg/injection, schedule: Q04DX003 (ip), vehicle: saline with Tween-80 91 % of control | [1] 94 % of control

COc1cccc(C)c1[N+](=O)[O-]
inactive: [10] 94 % of control | [12] 97 % of control | [14] 105 % of control

CC1=CC(C)=NC2NNC(=O)C12 (stereo not given)
inactive: dose: 100.0 mg/kg/injection, schedule: Q04DX002 (ip), vehicle: saline with Tween-80 100 % of control | dose: 200.0 mg/kg/injection, schedule: Q04DX002 (ip), vehicle: saline with Tween-80 103 % of control | dose: 400.0 mg/kg/injection, schedule: Q04DX002 (ip), vehicle: saline with Tween-80 96 % of control

O=C(Nc1ccc(C2=NCCN2)cc1)Nc1ccccc1NC(=O)Nc1ccc(C2=NCCN2)cc1
inactive: dose: 3.12 mg/kg/injection, schedule: Q01DX Z (ip), vehicle: water 100 % of control | dose: 6.25 mg/kg/injection, schedule: Q01DX Z (ip), vehicle: water 117 % of control | dose: 12.5 mg/kg/injection, schedule: Q01DX Z (ip), vehicle: water 105 % of control

c1cc2c(c(OCC3=NCCN3)c1)CCC2
inactive: dose: 10.0 mg/kg/injection, schedule: Q01DX009 (ip), vehicle: Klucel (hydroxypropylcellulose) (HPC) 107 % of control | dose: 20.0 mg/kg/injection, schedule: Q01DX009 (ip), vehicle: Klucel (hydroxypropylcellulose) (HPC) 105 % of control | dose: 40.0 mg/kg/injection, schedule: Q01DX009 (ip), vehicle: Klucel (hydroxypropylcellulose) (HPC) 93 % of control

O=C1c2ccccc2C(=O)C1(c1ccccc1)c1ccccc1
inactive: [6] 103 % of control | [7] 97 % of control | [8] 92 % of control

Cn1nc(C(=O)O)c2c(N)ncnc21
inactive: dose: 50.0 mg/kg/injection, schedule: Q04DX002 (ip), vehicle: saline 103 % of control | [16] 95 % of control | [17] 98 % of control

COCC(O)CCl (stereo not given)
inactive: [18] 113 % of control | [19] 113 % of control | [20] 113 % of control

NC1CC2C=CCC(C1)C2 (stereo not given)
inactive: dose: 100.0 mg/kg/injection, schedule: Q01DX001 (ip), vehicle: saline 95 % of control | dose: 200.0 mg/kg/injection, schedule: Q01DX001 (ip), vehicle: saline 94 % of control

Nc1ncnc2c1ncn2C1CC(COP(=O)(O)O)C(O)C1O (stereo not given)
inactive: dose: 37.0 mg/kg/injection, schedule: Q04DX003 (ip), vehicle: saline 105 % of control | dose: 75.0 mg/kg/injection, schedule: Q01DX001 (ip), vehicle: saline 107 % of control | dose: 75.0 mg/kg/injection, schedule: Q04DX003 (ip), vehicle: saline 110 % of control | dose: 150.0 mg/kg/injection, schedule: Q01DX001 (ip), vehicle: saline 87 % of control | dose: 150.0 mg/kg/injection, schedule: Q04DX003 (ip), vehicle: saline 100 % of control

C=C(Br)CNC(=O)NCC
inactive: [18] 94 % of control | [19] 91 % of control | [20] 105 % of control | [1] 97 % of control

CCOC(=O)C1(c2ccccc2)CCCNC1=O (stereo not given)
inactive: [16] 107 % of control | [17] 89 % of control | [21] 100 % of control

CNc1ncnc(Cl)c1N
inactive: dose: 100.0 mg/kg/injection, schedule: Q01DX001 (ip), vehicle: Klucel (hydroxypropylcellulose) (HPC) 103 % of control | dose: 200.0 mg/kg/injection, schedule: Q01DX001 (ip), vehicle: Klucel (hydroxypropylcellulose) (HPC) 107 % of control

Nc1ccnc2cc(Cl)ccc12
inactive: dose: 75.0 mg/kg/injection, schedule: Q01DX001 (ip), vehicle: other 103 % of control | dose: 150.0 mg/kg/injection, schedule: Q01DX001 (ip), vehicle: other 100 % of control

CCCCCCC(C)CCCC (stereo not given)
inactive: dose: 100.0 mg/kg/injection, schedule: Q01DX001 (ip), vehicle: saline with Tween-80 94 % of control | dose: 200.0 mg/kg/injection, schedule: Q01DX001 (ip), vehicle: saline with Tween-80 91 % of control | dose: 400.0 mg/kg/injection, schedule: Q01DX001 (ip), vehicle: saline with Tween-80 86 % of control

O=C(NC1CCCCC1)Sc1ccc(Cl)cc1
inactive: dose: 25.0 mg/kg/injection, schedule: Q01DX009 (ip), vehicle: Klucel (hydroxypropylcellulose) (HPC) 104 % of control | dose: 25.0 mg/kg/injection, schedule: Q04DX003 (ip), vehicle: Klucel (hydroxypropylcellulose) (HPC) 94 % of control | [15] 103 % of control | dose: 50.0 mg/kg/injection, schedule: Q04DX003 (ip), vehicle: Klucel (hydroxypropylcellulose) (HPC) 102 % of control | [9] 98 % of control | [10] 100 % of control and 108 % of control

O=C(Nc1ccccc1)C(Cl)Cl
inactive: [20] 96 % of control | dose: 200.0 mg/kg/injection, schedule: Q01DX009 (ip), vehicle: saline with Tween-80 91 % of control | dose: 400.0 mg/kg/injection, schedule: Q01DX009 (ip), vehicle: saline with Tween-80 96 % of control

N=C1SCCS1
inactive: [16] 92 % of control | [17] 101 % of control | [21] 105 % of control

C[C@@H]1O[C@@H](O[C@H]2CC[C@]3(C=O)[C@H]4CC[C@]5(C)[C@@H](c6ccc(=O)oc6)CC[C@]5(O)[C@@H]4CC[C@]3(O)C2)[C@H](O)[C@H](O)[C@H]1O[C@@H]1O[C@H](CO)[C@@H](O)[C@H](O)[C@H]1O
inactive: dose: 5.0 mg/kg/injection, schedule: Q01DX001 (ip), vehicle: carboxymethylcellulose (CMC) 100 % of control | dose: 10.0 mg/kg/injection, schedule: Q01DX001 (ip), vehicle: carboxymethylcellulose (CMC) 94 % of control

CC1(N)CC2CCC1C2 (stereo not given)
inactive: [4] 96 % of control | [5] 92 % of control

CCOC(=O)c1ccc2c(c1)nc1c3cccc4cccc(c(=O)n21)c43
inactive: [1] 86 % of control | [2] 92 % of control | [3] 98 % of control

COc1ccc(/C=C/c2cnc3ccccc3n2)cc1OC
inactive: [9] 91 % of control | [10] 98 % of control | [11] 100 % of control | [12] 93 % of control | [13] 92 % of control | [14] 97 % of control
